Reference: patent US4431634A, “Prenatal iron supplements” (American Cyanamid Company, priority 1981, dated 1984)
Where two headings read alike, the source gives them in different places. Blank lines part the entries; values can stand above or below the molecule they belong to.

What was measured:
[1] = human, in vivo
Description: (§1) The absorption of iron was established by collection of venous blood samples collected by hypodermic syringe and clotted at room temperature for one hour in silicone coated glass tubes. The tubes were centrifuged at 4,000 g for 30 minutes at 4° C. to isolate the serum which is removed and stored at -20° C. The serum samples were assayed for serum iron via spectrophotometry using ferrozine reagent.
(§2) The tests were conducted in healthy menstruating female volunteers 21 to 45 years of age having normal hemoglobin and hematocrit valves. The subjects fasted overnight. Fifteen to 24 subjects were used in each study. Each study was conducted as a randomized crossover trial with the composition being administered at 8 a.m. at 3 to 4 day intervals. Blood was first taken in the fasting state. Then the preparation was administered using 50 ml of deionized water and the subjects remained fasting until the final blood sample was obtained. Serum iron levels were assayed in duplicate on a blind basis.
(§3) All valves were corrected using this valve for diurnal variation. Values for iron absorption were calculated from the increases in serum iron concentration measured 2 to 6 hours after iron ingestion.
(§4) In each case, the quantities of mineral stated are on the basis of the elemental metal as opposed to the weight of the entire salt.
(§5) This study involved 15 female subjects of child bearing age.
(§6) Again, 15 females of child bearing age were studied using ferrous fumarate alone and in combinations of calcium sulfate (CS), calcium carbonate (CC) and magnesium oxide (MX). The study involved 15 females of child bearing age with data obtained three hours after oral ingestion.
(§7) The data were obtained 3 hours after oral ingestion.

[2] = Iron absorption in healthy menstruating female volunteers (serum iron after oral ingestion, randomized crossover; Studies I-IV); settings: 3 hours after oral ingestion; for effect of co-administered mineral salt on iron absorption: Study II, co-administered with ferrous fumarate
Description: as §1, §2, §3, §4, §5, §6, §7

Calculated mean values for iron absorption, Average [1]: 8.1 mg
SMILES: O=C([O-])/C=C/C(=O)[O-].[Fe+2] [Ferrous fumarate, ferrous fumarate, reference compound]

SMILES: O=S(=O)([O-])[O-].[Ca+2] [Plaster of paris, calcium sulfate]
effect of co-administered mineral salt on iron absorption [2]: does not seem to be inhibitory

SMILES: O=C(O)O [calcium carbonate]
effect of co-administered mineral salt on iron absorption [2]: additive inhibitory effects on iron absorption
effect of mineral component on bioavailability of the iron supplement ([2]; Study III, mineral components of the formulations): depressant effects

effect of mineral component on bioavailability of the iron supplement ([1]; po): depressant effects
SMILES: [O]=[Mg] [magnesium oxide]
effect of co-administered mineral salt on iron absorption ([1]; po): additive inhibitory effects on iron absorption
